The record followed here is patent US20260207569A1, “LPA1 ANTAGONISTS FOR TREATING INTERSTITIAL LUNG DISEASE” (Bristol-Myers Squibb Company, priority 2022, published 2026).

The nature of the data set: Phase 2 IPF cohort safety: adverse events, low blood pressure criteria, dose reductions. It is filed as in vivo, human. On the procedure:
A total of 278 participants with IPF were randomized and 276 participants were treated as of […] analyses data cut-off (4 Aug. 2022). Male and female participants ≥40 years of age with IPF and percent predicted forced vital capacity (ppFVC) ≥40% and percent predicted DLCO (ppDLCO) ≥25%; diagnosed within 7 years of screening; having a centrally-read chest HRCT obtained at screening that was consistent with UIP or probable UIP, or having a lung biopsy consistent with UIP, were eligible to enter the study. The mean baseline ppFVC for all subjects was 76.5%. In the primary IPF cohort, participants were randomized (1:1:1) to receive 30 mg or 60 mg Compound A or placebo (PBO) twice daily for 26 weeks. Participants were stratified by standard of care (SoC) IPF therapy (pirfenidone versus nintedanib versus none) and region (Japan versus Rest of World) at randomization.
Patient experiences any of the following, confirmed by retest within 15 minutes: • Seated systolic blood pressure <85 mmHg • Seated diastolic blood pressure <55 mmHg • Orthostatic hypotension
Patient experiences symptoms that, in the investigator's opinion, could be associated with a reduction in blood pressure and also experiences at least one of the following, confirmed by retest within 15 minutes: • Seated systolic blood pressure <100 mmHg or seated diastolic blood pressure <60 mmHg • Decrease of seated systolic blood pressure of ≥20 mmHg from the previous visit or decrease of seated diastolic blood pressure of ≥10 mmHg from the previous visit • Orthostatic hypotension • Orthostatic tachycardia

[1] abbreviates: Active Total (30 mg and 60 mg groups).

“Also recorded” adds a separate entry of the source.

With `CCCN(C)C(=O)OCc1c(-c2ccc(O[C@H]3CCC[C@H](C(=O)O)C3)c(C)n2)nnn1C` [Compound A, (1S,3S)-3-((2-methyl-6-(1-methyl-5-(((methyl(propyl)carbamoyl)-oxy)methyl)-1H-1,2,3-triazol-4-yl)pyridin-3-yl)oxy)cyclohexane-1-carboxylic acid], the “Dose reductions to 10 mg BID due to protocol-defined low BP criteria, %” value (30 mg BID) was determined as 7.7%. Besides, under “60 mg BID”, the “Dose reductions to 10 mg BID due to protocol-defined low BP criteria, %” value is 6.5% and the “Risk of orthostatic intolerance, orthostatic hypotension or low BP criteria vs PBO” value was “lowest frequencies of orthostatic intolerance, orthostatic hypotension, or pre-specified symptomatic or asymptomatic low BP criteria; also recorded: not associated with any increased risk of orthostatic intolerance, orthostatic hypotension, orthostatic tachycardia, or symptomatic or asymptomatic low BP”. Under setting [1], the “Subjects discontinuing study treatment due to a TEAE, %” value is “(8.2) %”; the “Subjects who died due to a TEAE, %” value is “(3.8) %”; the “Subjects who died, %” value is “(4.9) %”; the “Subjects with at least one AESI, %” value is recorded as “(14.7) %”. Besides, under setting [1], the “Subjects with at least one TEAE related to the study treatment, %” value is “(26.1) %”; the “Subjects with at least one TEAE, %” value is listed as “(75.0) %”; the “Subjects with at least one TESAE, %” value is “(10.9) %”.
